In patent publication US20240050477A1, “LIPID NANOPARTICLE” (NATIONAL UNIVERSITY CORPORATION HOKKAIDO UNIVERSITY, priority 2021, published 2024):

Tests used:
[1] = pKa of lipid nanoparticle measured using TNS; type: physicochemical; conditions: apparent pKa of the pH-sensitive cationic lipid constituting a lipid nanoparticle
Experimental: The pKa of lipid nanoparticles was measured using […] (TNS). TNS (final concentration: 0.75 mM) and the lipid nanoparticles (final concentration: 30 mM) were first mixed in a buffer solution adjusted to each pH. The fluorescence intensity of the prepared mixed solution was measured using a microplate reader.

[2] = system: GAPDH mRNA in NK-92 cells; experiment: GAPDH gene knockdown activity of siGAPDH-encapsulated lipid nanoparticle in NK-92 cells (RT-qPCR); type: cell-based, human; conditions: siGAPDH-encapsulated LNP, siRNA 10-90 nM, 24 hours after transfection
Experimental: A NK cell line (NK-92 or NK-92MI) was transfected with each lipid nanoparticle. The knockdown activity of the siGAPDH- or siSMAD3-encapsulated lipid nanoparticle was examined by RT-qPCR using RNA extracted from the cells 24 hours later as a template.
First, the NK cell line was recovered into a 50 mL tube and centrifuged (130×g, 4° C., 5 min). The supernatant was removed, and the cells were suspended in 10 mL of a culture medium (Opti-MEM), counted, and then resuspended into 4×10^6 cells/mL in a culture medium. […]
The cells were recovered into a 1.5 mL tube from each well and centrifuged (800×g, 4° C., 3 min). […] Then, absorbance was measured using micro-volume spectrophotometer “Nano drop” (manufactured by Thermo Fisher Scientific Inc.) to measure the concentration and purity of the RNA.
Reverse-transcription reaction was performed with the recovered RNA as a template using an oligo dT primer and a random primer (6 mars) in a kit for reverse-transcription reaction (“PrimeScript RT reagent kit”, manufactured by Takara Bio Inc.). Then, a GAPDH or SMAD3 mRNA level was measured by real-time PCR with the obtained cDNA as a template using relative quantification based on the ΔΔCt method and β-actin (ACTB) as an endogenous gene. […]

Row | pKa [1] | Compound | GAPDH gene knockdown activity ([GAPDH mRNA level]/[ACTB mRNA level]) [2]
1 | 8.2 | CCCCCCCC/C=C\CCCCCCCC(=O)OCCCCCCC(O)(CCCCCCOC(=O)CCCCCCC/C=C\CCCCCCCC)CCCCN(C)C [CL1H6] | high gene knockdown activity at a small content ratio
2 | 6.35 | CCCCCCCC/C=C\CCCCCCCC(=O)OCCCCCCC(O)(CCCCCCOC(=O)CCCCCCC/C=C\CCCCCCCC)CCCCN(CCC)CCC [CL4H6] | 
3 | 7.3 | CCCCCCCC/C=C\CCCCCCCC(=O)OCCCCCCC(O)(CCCCCCOC(=O)CCCCCCC/C=C\CCCCCCCC)CCCCOC(=O)C1CCN(C)CC1 [CL15H6] | 
4 | 8.2 | CCCCC/C=C\C/C=C\CCCCCCCCC(O)(CCCCCCCC/C=C\C/C=C\CCCCC)CCCCN(C)C [YSK12-C4] | 
